From patent publication US10968225B2, “Compounds and compositions for the treatment of cystic fibrosis” (Fondazione Istituto Italiano Di Tecnologia, priority 2017, dated 2021)
Counter-ions that a name gives are not always drawn.

Target: T1, mutant CFTR (Homo sapiens, UniProt P13569, DEL508-508)
T1 construct: expressed in transfected cells
Test: Fluorescence (HS-YFP) assay for CFTR activity, corrector assay
Type: cell-based
Details: CFBE41o- and FRT cells with stable expression of mutant CFTR, read-out: activity (EC50)

T1 sequence (P13569 with tags, fused parts or gaps DEL508-508): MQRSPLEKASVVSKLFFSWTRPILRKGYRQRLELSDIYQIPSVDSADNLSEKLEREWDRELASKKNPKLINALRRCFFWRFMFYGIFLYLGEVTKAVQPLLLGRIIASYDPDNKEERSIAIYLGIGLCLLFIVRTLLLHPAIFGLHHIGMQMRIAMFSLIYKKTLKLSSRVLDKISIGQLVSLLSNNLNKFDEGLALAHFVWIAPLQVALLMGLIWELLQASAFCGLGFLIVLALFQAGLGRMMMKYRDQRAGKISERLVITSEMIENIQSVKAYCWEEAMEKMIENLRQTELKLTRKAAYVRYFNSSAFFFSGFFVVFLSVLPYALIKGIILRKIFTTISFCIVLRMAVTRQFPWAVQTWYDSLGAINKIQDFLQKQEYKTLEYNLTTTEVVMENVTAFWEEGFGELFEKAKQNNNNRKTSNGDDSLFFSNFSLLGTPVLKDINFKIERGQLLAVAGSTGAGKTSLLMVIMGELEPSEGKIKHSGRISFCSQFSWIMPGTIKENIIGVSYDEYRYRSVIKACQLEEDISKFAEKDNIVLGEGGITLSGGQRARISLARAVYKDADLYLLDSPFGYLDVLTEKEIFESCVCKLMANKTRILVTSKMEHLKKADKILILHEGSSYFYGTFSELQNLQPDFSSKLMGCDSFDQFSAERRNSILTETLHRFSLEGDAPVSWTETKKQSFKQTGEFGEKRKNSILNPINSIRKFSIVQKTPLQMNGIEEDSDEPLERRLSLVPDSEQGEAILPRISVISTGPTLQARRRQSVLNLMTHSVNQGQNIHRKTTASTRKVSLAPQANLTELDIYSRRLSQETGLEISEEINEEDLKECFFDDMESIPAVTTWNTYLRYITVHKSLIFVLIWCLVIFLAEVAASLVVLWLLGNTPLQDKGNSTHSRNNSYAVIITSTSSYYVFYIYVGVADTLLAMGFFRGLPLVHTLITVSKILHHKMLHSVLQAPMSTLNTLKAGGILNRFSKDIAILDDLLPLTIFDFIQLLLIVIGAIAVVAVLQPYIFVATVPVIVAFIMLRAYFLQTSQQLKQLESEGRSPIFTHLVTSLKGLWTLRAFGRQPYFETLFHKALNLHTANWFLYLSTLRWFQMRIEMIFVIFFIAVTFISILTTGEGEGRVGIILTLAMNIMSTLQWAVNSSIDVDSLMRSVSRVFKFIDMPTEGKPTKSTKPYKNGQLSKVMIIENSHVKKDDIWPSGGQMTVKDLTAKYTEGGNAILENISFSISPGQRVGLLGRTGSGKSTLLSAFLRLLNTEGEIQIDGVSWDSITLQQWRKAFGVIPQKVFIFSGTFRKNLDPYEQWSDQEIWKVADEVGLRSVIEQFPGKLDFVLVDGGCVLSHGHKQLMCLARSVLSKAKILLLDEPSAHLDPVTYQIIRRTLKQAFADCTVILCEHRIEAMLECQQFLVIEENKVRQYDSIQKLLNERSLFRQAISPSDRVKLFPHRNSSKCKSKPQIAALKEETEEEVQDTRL

First: CN(C(=O)c1cccc(-n2nc(C(F)(F)F)c3c2C(Oc2cncc(C(=O)O)c2)COC3)c1)c1ccc2c(c1)OC(F)(F)O2 (racemic) [Compound 210, 5-[[1-[3-[(2,2-Difluoro-1,3-benzodioxol-5-yl)-methyl-carbamoyl]phenyl]-3-(trifluoromethyl)-6,7-dihydro-4H-pyrano[4,3-c]pyrazol-7-yl]oxy]pyridine-3-carboxylic acid]
Second: CN(C(=O)c1cccc(-n2nc(C(F)(F)F)c3c2C(Oc2cc(C(=O)O)ccn2)COC3)c1)c1ccc2c(c1)OC(F)(F)O2 (racemic) [Compound 231, 2-[[1-[3-[(2,2-Difluoro-1,3-benzodioxol-5-yl)-methyl-carbamoyl]phenyl]-3-(trifluoromethyl)-6,7-dihydro-4H-pyrano[4,3-c]pyrazol-7-yl]oxy]pyridine-4-carboxylic acid]
The EC50 of the first is higher: 1000 to 2000 nM for the first, under 1000 nM for the second.

Going from `Cc1cc2ncc(N(C)C(=O)c3cccc(-n4nc(C(F)(F)F)c5c4C(Oc4ccc(C(=O)O)cc4)CCC5)c3)cn2n1` (stereo not shown) [Compound 174, 4-[[1-[3-[Methyl-(2-methylpyrazolo[1,5-a]pyrimidin-6-yl)carbamoyl]phenyl]-3-(trifluoromethyl)-4,5,6,7-tetrahydroindazol-7-yl]oxy]benzoic acid] to `CN(C(=O)c1cccc(-n2nc(C(F)(F)F)c3c2C(Oc2ccc(C(=O)O)cc2)CCC3)c1)c1cncc(Cl)c1` (racemic) [Compound 309, 4-[[1-[3-[(5-chloro-3-pyridyl)-methyl-carbamoyl]phenyl]-3-(trifluoromethyl)-4,5,6,7-tetrahydroindazol-7-yl]oxy]benzoic acid], the EC50 rises from under 1000 nM to over 2000 nM. The first is the more potent here.

`CN(C(=O)c1cccc(-n2nc(C(F)(F)F)c3c2C(Oc2ncc(C(=O)O)cn2)COC3)c1)c1cnc2c(c1)OCC2` (racemic) [Compound 300, 2-[[1-[3-[2,3-Dihydrofuro[3,2-b]pyridin-6-yl(methyl)carbamoyl]phenyl]-3-(trifluoromethyl)-6,7-dihydro-4H-pyrano[4,3-c]pyrazol-7-yl]oxy]pyrimidine-5-carboxylic acid] and `CN(C(=O)c1cccc(-n2nc(C(F)(F)F)c3c2C(Oc2ccc(C(=O)O)cn2)COC3)c1)c1ccc2c(c1)OC(F)(F)O2` (single isomer, unassigned) [Compound 278, (R) or (S)-6-[[1-[3-[(2,2-difluoro-1,3-benzodioxol-5-yl)-methyl-carbamoyl]phenyl]-3-(trifluoromethyl)-6,7-dihydro-4H-pyrano[4,3-c]pyrazol-7-yl]oxy]pyridine-3-carboxylic acid] cannot be ordered by EC50: under 1000 nM for the first, under 1000 nM for the second.

`CN(C(=O)c1cccc(-n2nc(C(F)(F)F)c3c2C(Oc2ccc(C(=O)O)cc2)COC3)c1)c1ccnc(OC(F)F)c1` (single isomer, unassigned) [Compound 291, (S) or (R)-4-[[1-[3-[[2-(difluoromethoxy)-4-pyridyl]-methyl-carbamoyl]phenyl]-3-(trifluoromethyl)-6,7-dihydro-4H-pyrano[4,3-c]pyrazol-7-yl]oxy]benzoic acid] and `CN(C(=O)c1cccc(-n2nc(C(F)(F)F)c3c2C(Oc2ccc(C(=O)O)cc2)CCC3)c1)c1cccc(OC(F)F)c1` (racemic) [Compound 266, 4-[[1-[3-[[3-(Difluoromethoxy)phenyl]-methyl-carbamoyl]phenyl]-3-(trifluoromethyl)-4,5,6,7-tetrahydroindazol-7-yl]oxy]benzoic acid] fall in the same range of EC50: 1000 to 2000 nM for the first, 1000 to 2000 nM for the second.

`CN(C(=O)c1cccc(-n2nc(C(F)(F)F)c3c2CCN(C(=O)C2(O)CC2)C3)c1)c1ccc2c(c1)OCO2` [Compound 034, N-(1,3-Benzodioxol-5-yl)-3-[5-(1-hydroxycyclopropanecarbonyl)-3-(trifluoromethyl)-6,7-dihydro-4H-pyrazolo[4,3-c]pyridin-1-yl]-N-methyl-benzamide] and `CCC(C)N1CCc2c(c(C(F)(F)F)nn2-c2cccc(C(=O)N(C)c3ccc4c(c3)OCO4)c2)C1` (racemic) [Compound 024, N-(1,3-Benzodioxol-5-yl)-N-methyl-3-[5-sec-butyl-3-(trifluoromethyl)-6,7-dihydro-4H-pyrazolo[4,3-c]pyridin-1-yl]benzamide] cannot be ordered by EC50: under 1000 nM for the first, under 1000 nM for the second.

`COc1cc(OC2CCCc3c(C(F)(F)F)nn(-c4cccc(C(=O)N(C)c5ccc6c(c5)OC(F)(F)O6)c4)c32)ccc1C(=O)O` (stereo not shown) [Compound 161, 4-[[1-[3-[(2,2-Difluoro-1,3-benzodioxol-5-yl)-methyl-carbamoyl]phenyl]-3-(trifluoromethyl)-4,5,6,7-tetrahydroindazol-7-yl]oxy]-2-methoxy-benzoic acid] and `CN(C(=O)c1cccc(-n2nc(C(F)(F)F)c3c2C(Oc2cccc(C(=O)O)c2)CCC3)c1)c1ccc2c(c1)OC(F)(F)O2` (single isomer, unassigned) [Compound 188, (S) or (R)-3-[[1-[3-[(2,2-Difluoro-1,3-benzodioxol-5-yl)-methyl-carbamoyl]phenyl]-3-(trifluoromethyl)-4,5,6,7-tetrahydroindazol-7-yl]oxy]benzoic acid] cannot be ordered by EC50: under 1000 nM for the first, under 1000 nM for the second.

`CN(C(=O)c1cccc(-n2nc(C(F)(F)F)c3c2C[C@H]2CC[C@@H]3N2C(=O)OC(C)(C)C)c1)c1ccc2c(c1)OCO2` (single isomer, unassigned) [Compound 052, (4R,7S)- or (4S,7R)-tert-Butyl-1-(3-(benzo[d][1,3]dioxol-5-yl(methyl)carbamoyl)phenyl)-3-(trifluoromethyl)-1,4,5,6,7,8-hexahydro-4,7-epiminocyclohepta[c]pyrazole-9-carboxylate] and `CN(C(=O)c1cccc(-n2nc(C(F)(F)F)c3c2C[C@@H]2CC[C@H]3N2C(=O)C(C)(C)C)c1)c1ccc2c(c1)OCO2` (single isomer, unassigned) [Compound 088, (4R,7S)- or (4S,7R)—N-(Benzo[d][1,3]dioxol-5-yl)-N-methyl-3-[(9-pivaloyl-3-(trifluoromethyl)-5,6,7,8-tetrahydro-4,7-epiminocyclohepta[c]pyrazol-1(4H)-yl)]benzamide] cannot be ordered by EC50: under 1000 nM for the first, under 1000 nM for the second.

`COC(=O)c1ccc(S(=O)(=O)N2CCc3c(c(C(F)(F)F)nn3-c3cccc(C(=O)N(C)c4ccc5c(c4)OCO5)c3)C2)cc1` [Compound 055, Methyl 4-[[1-[3-[1,3-benzodioxol-5-yl(methyl)carbamoyl]phenyl]-3-(trifluoromethyl)-6,7-dihydro-4H-pyrazolo[4,3-c]pyridin-5-yl]sulfonyl]benzoate] and `CN(C(=O)c1cccc(-n2nc(C(F)(F)F)c3c2CCN(S(=O)(=O)c2ccc(C#N)cc2)C3)c1)c1ccc2c(c1)OCO2` [Compound 063, N-(1,3-Benzodioxol-5-yl)-3-[5-(4-cyanophenyl)sulfonyl-3-(trifluoromethyl)-6,7-dihydro-4H-pyrazolo[4,3-c]pyridin-1-yl]-N-methyl-benzamide] cannot be ordered by EC50: under 1000 nM for the first, under 1000 nM for the second.

`CN(C(=O)c1cccc(-n2nc(C(F)(F)F)c3c2C(Oc2ccc(CO)cc2)CCC3)c1)c1ccc2c(c1)OC(F)(F)O2` (stereo in doubt) [Compound 304, N-(2,2-Difluoro-1,3-benzodioxol-5-yl)-3-[(S)-7-[4-(hydroxymethyl)phenoxy]-3-(trifluoromethyl)-4,5,6,7-tetrahydroindazol-1-yl]-N-methyl-benzamide] and `CN(C(=O)c1cccc(-n2nc(C(F)(F)F)c3c2C(Oc2cc(C(=O)O)ccn2)CCC3)c1)c1ccc2c(c1)OC(F)(F)O2` (stereo not shown) [Compound 182, 2-[[1-[3-[(2,2-Difluoro-1,3-benzodioxol-5-yl)-methyl-carbamoyl]phenyl]-3-(trifluoromethyl)-4,5,6,7-tetrahydroindazol-7-yl]oxy]pyridine-4-carboxylic acid] cannot be ordered by EC50: under 1000 nM for the first, under 1000 nM for the second.

`CN(C(=O)c1cccc(-n2nc(C(F)(F)F)c3c2CC2CCC3N2)c1)c1ccc2c(c1)OCO2` (racemic) [Compound 022, N-(Benzo[d][1,3]dioxol-5-yl)-N-methyl-3-(3-(trifluoromethyl)-5,6,7,8-tetrahydro-4,7-epiminocyclohepta[c]pyrazol-1(4H)-yl)benzamide hydrochloride] and `CN(C(=O)c1cccc(-n2nc(C(F)(F)F)c3c2CCOC3)c1)c1ccc2c(c1)OCO2` [Compound 054, N-(1,3-Benzodioxol-5-yl)-N-methyl-3-[3-(trifluoromethyl)-6,7-dihydro-4H-pyrano[4,3-c]pyrazol-1-yl]benzamide] cannot be ordered by EC50: under 1000 nM for the first, under 1000 nM for the second.

`COC(=O)c1ccc(C(=O)N2CCc3c(c(C(F)(F)F)nn3-c3cccc(C(=O)N(C)c4ccc5c(c4)OCO5)c3)C2)cc1` [Compound 042, Methyl 4-[1-[3-[1,3-benzodioxol-5-yl(methyl)carbamoyl]phenyl]-3-(trifluoromethyl)-6,7-dihydro-4H-pyrazolo[4,3-c]pyridine-5-carbonyl]benzoate] and `CN(C(=O)c1cccc(-n2nc(C(F)(F)F)c3c2CCCN3C(=O)OC(C)(C)C)c1)c1ccc2c(c1)OCO2` [Compound 028, tert-Butyl 1-[3-[1,3-benzodioxol-5-yl(methyl)carbamoyl]phenyl]-3-(trifluoromethyl)-6,7-dihydro-5H-pyrazolo[4,3-b]pyridine-4-carboxylate] cannot be ordered by EC50: under 1000 nM for the first, under 1000 nM for the second.

`COc1ccc(N(C)C(=O)c2cccc(-n3nc(C(F)(F)F)c4c3CCN(C(=O)C(C)(C)C)C4)c2)cn1` [Compound 085, 3-[5-(2,2-Dimethylpropanoyl)-3-(trifluoromethyl)-6,7-dihydro-4Hpyrazolo[4,3-c]pyridin-1-yl]-N-(6-methoxy-3-pyridyl)-N-methylbenzamide] and `CN(C(=O)c1cccc(-n2nc(C(F)(F)F)c3c2C[C@H]2CC[C@@H]3N2C(=O)C(C)(C)C)c1)c1ccc2c(c1)OCO2` (single isomer, unassigned) [Compound 087, (4R,7S)- or (4S,7R)—N-(Benzo[d][1,3]dioxol-5-yl)-N-methyl-3-[(9-pivaloyl-3-(trifluoromethyl)-5,6,7,8-tetrahydro-4,7-epiminocyclohepta[c]pyrazol-1(4H)-yl)]benzamide] cannot be ordered by EC50: under 1000 nM for the first, under 1000 nM for the second.

Work on `COc1ccc(N(C)C(=O)c2cccc(-n3nc(C(F)(F)F)c4c3C(Oc3ccc(C(=O)O)cc3)CCC4)c2)cc1OC` (racemic) [Compound 311, 4-[[1-[3-[(3,4-Dimethoxyphenyl)-methyl-carbamoyl]phenyl]-3-(trifluoromethyl)-4,5,6,7-tetrahydroindazol-7-yl]oxy]benzoic acid] yielded an EC50 of over 2000 nM.
